Experimental data as given in PubChem BioAssay (NCI).
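Tested at 5 concentrations; 48 h exposure; 96-well plates; endpoints linearly interpolated, else capped at highest concentration. At the TGI there is no net growth.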

What was measured:
Assay in all cases: NCI anticancer screen, dose series, 48 h
[1] = system: SK-MEL-28 melanoma
[2] = system: DMS 114 small cell lung
[3] = system: DMS 273 small cell lung
[4] = system: DLD-1 colon
[5] = system: RPMI-8226 leukemia
[6] = system: HOP-62 NSCLC
[7] = system: KM20L2 colon
[8] = system: U251 CNS
[9] = system: M14 melanoma
[10] = system: EKVX NSCLC
[11] = system: UACC-62 melanoma
[12] = system: SF-268 CNS
[13] = system: CAKI-1 renal
[14] = system: ACHN renal
[15] = system: HCT-15 colon
[16] = system: LOX IMVI melanoma
[17] = system: SN12C renal
[18] = system: A498 renal
[19] = system: OVCAR-8 ovarian
[20] = system: XF 498 CNS
[21] = system: RXF-631 renal
[22] = system: HOP-18 NSCLC
[23] = system: HCC-2998 colon
[24] = system: SNB-78 CNS
[25] = system: NCI-H460 lung
[26] = system: HCT-116 colon
[27] = system: OVCAR-4 ovarian
[28] = system: SF-539 CNS
[29] = system: SF-295 CNS
[30] = system: SW-620 colon
[31] = system: LXFL 529 NSCLC
[32] = system: CCRF-CEM leukemia
[33] = system: SNB-75 CNS
[34] = system: UACC-257 melanoma
[35] = system: TK-10 renal
[36] = system: MOLT-4 leukemia
[37] = system: IGROV1 ovarian
[38] = system: A549 NSCLC
[39] = system: K-562 leukemia
[40] = system: NCI-H23 lung
[41] = system: HT29 colon
[42] = system: RXF 393 renal
[43] = system: SNB-19 CNS
[44] = system: SK-OV-3 ovarian
[45] = system: HOP-92 NSCLC
[46] = system: KM12 colon
[47] = system: NCI-H522 lung
[48] = system: HL-60(TB) leukemia
[49] = system: OVCAR-3 ovarian
[50] = system: SK-MEL-2 melanoma
[51] = system: OVCAR-5 ovarian
[52] = system: COLO 205 colon
[53] = system: NCI-H226 lung
[54] = system: UO-31 renal
[55] = system: 786-0 renal
[56] = system: M19-MEL melanoma
[57] = system: MALME-3M melanoma
[58] = system: SK-MEL-5 melanoma
[59] = system: SR leukemia

Measured: TGI

C[C@]12Cc3cn[nH]c3C(=O)C1CC[C@@H]1C2CC[C@@]2(C)C1CC[C@]2(C)O (some centres undefined)
not listed: [59]
> 100 µM: all other assays above

Nc1nc(=S)c2c(ncn2CC(O)CO)[nH]1 (centres undefined)
not listed: [23] | [36] | [40]
> 100 µM: all other assays above
